Experimental data published in patent US20230167073A1 (Teijin Pharma Limited, priority 2020, published 2023).

biological target: T1, Human TRPC6 (Homo sapiens, UniProt Q9Y210); experiment: Evaluation of TRPC6 channel inhibitory activity (2), HEK293 cells with stably introduced human TRPC6, OAG stimulation, FLIPR tetra (Compound Nos. 1293 to 1405); format: cell-based; details: HEK293 cells with stably introduced human TRPC6, OAG 50 μM/0.5% DMSO, read-out: Inhibitory activity (pIC50 class) (converted)
T1 construct: expressed in transfected cells
T1 sequence (Q9Y210 1-931): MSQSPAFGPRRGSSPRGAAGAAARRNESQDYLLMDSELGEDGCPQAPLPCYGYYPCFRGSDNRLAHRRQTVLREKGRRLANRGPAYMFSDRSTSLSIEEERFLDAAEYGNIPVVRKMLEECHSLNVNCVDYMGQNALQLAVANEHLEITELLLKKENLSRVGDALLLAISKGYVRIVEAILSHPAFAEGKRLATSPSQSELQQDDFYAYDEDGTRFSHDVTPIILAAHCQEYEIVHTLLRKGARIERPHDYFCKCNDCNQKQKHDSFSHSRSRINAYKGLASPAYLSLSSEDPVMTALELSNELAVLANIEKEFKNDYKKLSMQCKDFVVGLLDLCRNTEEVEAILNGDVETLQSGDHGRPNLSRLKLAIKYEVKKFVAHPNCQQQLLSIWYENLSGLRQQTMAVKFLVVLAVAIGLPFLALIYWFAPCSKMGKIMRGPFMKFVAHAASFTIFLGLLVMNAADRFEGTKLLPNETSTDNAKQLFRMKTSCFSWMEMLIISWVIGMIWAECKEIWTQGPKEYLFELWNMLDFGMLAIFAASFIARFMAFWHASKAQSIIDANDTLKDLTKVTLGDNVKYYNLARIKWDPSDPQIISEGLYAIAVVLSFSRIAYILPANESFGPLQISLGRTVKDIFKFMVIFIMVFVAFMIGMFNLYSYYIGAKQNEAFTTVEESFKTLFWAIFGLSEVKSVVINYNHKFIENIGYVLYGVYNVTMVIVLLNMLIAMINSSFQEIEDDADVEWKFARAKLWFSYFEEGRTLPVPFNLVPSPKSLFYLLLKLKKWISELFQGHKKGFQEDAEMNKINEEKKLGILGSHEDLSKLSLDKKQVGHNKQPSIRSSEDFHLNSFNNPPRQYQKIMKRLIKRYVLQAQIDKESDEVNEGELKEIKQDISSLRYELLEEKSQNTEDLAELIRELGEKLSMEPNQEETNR
Procedure: Evaluation of TRPC6 Channel Inhibitory Activity (2) (Compound Nos. 1293 to 1405)
The activity of the TRPC6 inhibitor was measured by stimulating HEK293 cells, in which human TRPC6 was stably introduced, with OAG (1-Oleoyl-2-acetyl-sn-glycerol, Miliipore Sigma, 06754), using the FLIPR tetra system. The cells were proliferated in a humid environment at 37° C. 5% CO2 using a growth medium (DMEM (Dulbecco's Modified Eagle's Medium) high glucose containing 10% fetal bovine serum, 1×PSGlu (penicillin-streptomycin glutamine), 1×NEAA (Non-essential amino acid), sodium pyruvate and 200 μg/mL hyglomycin. For cell subculture, the cells were proliferated to 70-90% confluence, and gently washed twice with PBS (phosphate-buffered saline) free of calcium and magnesium after removing the medium. Then, the cells were incubated at 37° C. for 5 minutes after adding trypsin (3 mL), peeled off by tapping the flask at the base of the hand, 7 mL of growth medium was added to inactivate trypsin, and then the cells were resuspended. Usually, the cells were separated every 2-3 days to become a cell density of ⅕. The day before evaluation, the cells were seeded in a poly-D-lysine (PDL) coated 384-well plate using a multi-channel pipette or multidrop at a cell density of 1.0-1.5×10^4 cells/25 μL/well. After culturing overnight in a PDL-coated 384 Blackwell plate, a fluorescent dye buffer was added first to the cells and the cells were cultured at room temperature for 90-120 minutes. For preparing 10 mL of fluorescent dye buffer, 9 mL of assay buffer, 1 mL of 10×PBX signal enhancer, and 10 μL of calcium indicator were mixed. Cells treated with the compounds of each level 25 minutes before the stimulation with OAG of TRPC6 agonist were incubated. OAG solution was prepared by adding OAG to assay buffer (Ca ringer solution base: 10 mM HEPES (4-(2-hydroxyethyl)-1-piperazine-ethanesulfonic acid), 4 mM MgCl2, 120 mM NaCl, 5 mM KCl, pH=7.2 (25° C.)+0.1% BSA+2 mM CaCl2)) to give an OAG concentration of 0.2 mM/2% DMSO. The final concentration of OAG added to the cells is 50 μM/0.5% DMSO. A volume of 12.5 μL of OAG solution was added, and activation of TRPC6 channel was measured using the FLIPR tetra system assaying the change in intracellular calcium level as an index. The 180 seconds imaging frame was defined as the background signal, and the subtraction of the background signal from the raw data was used as the fluorescence peak signal. Each fluorescence peak signal is standardized using an OAG-induced signal and buffer-induced signal as 100% and 0%, respectively. The inhibition rate obtained by plotting the peak signal after the addition of the compounds of each level was analyzed by a four-parameter logistic regression to quantify the inhibition rate in the logarithm of the inverse of the effective concentration which gives a 50% inhibition rate (pIC50). The intensity was expressed by the above-mentioned symbols (+, ++, +++).

SMILES	IC50 [nM]
Cc1cc(Oc2nc(Cl)ccc2-c2ccc(CCN)cc2)cc(N2CCOCC2)n1 [compound 1329, 2-[4-[6-chloro-2-(2-methyl-6-morpholin-4-ylpyridin-4-yl)oxypyridin-3-yl]phenyl]ethanamine]	> 1000
Cn1nc([C@H]2CCCOC2)cc1Oc1cc(C#N)ccc1-c1ccc(CN)cn1 [compound 1330, 4-[5-(aminomethyl)pyridin-2-yl]-3-[2-methyl-5-[(3R)-oxan-3-yl]pyrazol-3-yl]oxybenzonitrile]	< 10
Cn1nc(-c2ccccn2)cc1Oc1cc(C#N)cnc1-c1ccc(CCN)cc1 [compound 1331, 6-[4-(2-aminoethyl)phenyl]-5-(2-methyl-5-pyridin-2-ylpyrazol-3-yl)oxypyridine-3-carbonitrile]	> 1000
Cn1nc(-c2ccccn2)cc1Oc1cc(C#N)ccc1-c1nc(Cl)ccc1CN [compound 1333, 4-[3-(aminomethyl)-6-chloropyridin-2-yl]-3-(2-methyl-5-pyridin-2-ylpyrazol-3-yl)oxybenzonitrile]	10 to 1000
Cc1cc(Oc2cc(Cl)ccc2-c2ncc([C@@H](F)CN)cn2)cc(N2CCOCC2)n1 [compound 1336, (2R)-2-[2-[4-chloro-2-(2-methyl-6-morpholin-4-ylpyridin-4-yl)oxyphenyl]pyrimidin-5-yl]-2-fluoroethanamine]	10 to 1000
Cn1nc(-c2ccccn2)cc1Oc1cc(Cl)ccc1-c1ccc([C@H](F)CN)cn1 [compound 1338, (2S)-2-[6-[4-chloro-2-(2-methyl-5-pyridin-2-ylpyrazol-3-yl)oxyphenyl]pyridin-3-yl]-2-fluoroethanamine]	< 10
Cn1nc(-c2ccccn2)cc1Oc1cc(Cl)ccc1-c1ccc([C@@H](F)CN)cn1 [compound 1339, (2R)-2-[6-[4-chloro-2-(2-methyl-5-pyridin-2-ylpyrazol-3-yl)oxyphenyl]pyridin-3-yl]-2-fluoroethanamine]	< 10
Cn1nc(-c2ccccn2)cc1Oc1cc(F)ccc1-c1ncc(CN)cn1 [compound 1341, [2-[4-fluoro-2-(2-methyl-5-pyridin-2-ylpyrazol-3-yl)oxyphenyl]pyrimidin-5-yl]methanamine]	10 to 1000
Cn1nc(-c2ccccn2)cc1Oc1cc(F)ccc1-c1ncc([C@@H](F)CN)cn1 [compound 1342, (2R)-2-fluoro-2-[2-[4-fluoro-2-(2-methyl-5-pyridin-2-ylpyrazol-3-yl)oxyphenyl]pyrimidin-5-yl]ethanamine]	10 to 1000

Second part, the compound after the results:

IC50 [nM]	SMILES
> 1000	Cn1nc(-c2ccccn2)cc1Oc1cc(Cl)ncc1-c1ccc(CCN)cc1 [compound 1332, 2-[4-[6-chloro-4-(2-methyl-5-pyridin-2-ylpyrazol-3-yl)oxypyridin-3-yl]phenyl]ethanamine]
< 10	Cn1nc(-c2ccccn2)cc1Oc1cc(C#N)ccc1-c1ccc(CN)c(Cl)n1 [compound 1334, 4-[5-(aminomethyl)-6-chloropyridin-2-yl]-3-(2-methyl-5-pyridin-2-ylpyrazol-3-yl)oxybenzonitrile]
< 10	Cn1nc(-c2ccccn2)cc1Oc1cc(F)ccc1-c1ncc([C@H](F)CN)cn1 [compound 1335, (2S)-2-fluoro-2-[2-[4-fluoro-2-(2-methyl-5-pyridin-2-ylpyrazol-3-yl)oxyphenyl]pyrimidin-5-yl]ethanamine]
< 10	Cc1cc(Oc2cc(Cl)ccc2-c2ncc([C@H](F)CN)cn2)cc(N2CCOCC2)n1 [compound 1337, (2S)-2-[2-[4-chloro-2-(2-methyl-6-morpholin-4-ylpyridin-4-yl)oxyphenyl]pyrimidin-5-yl]-2-fluoroethanamine]
< 10	Cn1nc(-c2ccccn2)cc1Oc1cc(Cl)ccc1-c1ccc(CN)cn1 [compound 1340, [6-[4-chloro-2-(2-methyl-5-pyridin-2-ylpyrazol-3-yl)oxyphenyl]pyridin-3-yl]methanamine]
> 1000	Cn1nc([C@H]2CCOC2)cc1Oc1cc(Cl)ccc1-c1ncc([C@H](F)CN)cn1 [compound 1344, (2S)-2-[2-[4-chloro-2-[2-methyl-5-[(3R)-oxolan-3-yl]pyrazol-3-yl]oxyphenyl]pyrimidin-5-yl]-2-fluoroethanamine]
